The text below walks through data of patent publication US9186337B2, “Lysine demethylase inhibitors for diseases and disorders associated with Hepadnaviridae” (Oryzon Genomics S.A., priority 2010, dated 2015).

Some results are limits rather than exact numbers.

The subject of data set [1] is hepatitis B virus (HBV) ayw strain. As to the kind of experiment: Anti-HBV assay with HepG2-2.2.15 cells (HBV DNA replication). The format is cell-based. The note with it: for Selectivity Index SI50: HepG2-2.2.15 cells; for EC50: Hepatitis B virus, HepG2 2.2.15, read-out: Antiviral Activity EC50. The procedure: (§1) Anti-HBV assays were conducted at Southern Research Organization using an HBV DNA replicon with a luciferase reporter.
(§2) Southern Research reports HepG2-2.2.15 is a stable cell line containing the hepatitis B virus (HBV) ayw strain genome. Antiviral compounds blocking any late step of viral replication such as transcription, translation, pregenome encapsidation, reverse transcription, particle assembly and release can be identified and characterized using this cell line. Initially we test whether a compound will reduce the production of secreted HBV from cells utilizing our real time quantitative PCR (TaqMan) HBV DNA assay.

A short description of data set [2]: Cytotoxicity in anti-HBV assay. The note with it: human; HepG2-2.2.15 cells. The format is cell-based. The procedure: as §1, §2
Data set [3] can be described thus: Maximum tolerated dose study in mice. The format is in vivo. The note with it: IP, 20, 40 and 60 mg/kg daily for 10 days. On the procedure:
(§3) Maximum tolerated dose studies and pharmacokinetics for several LSD1 inhibitors were assessed to determine if the compound can be administered to mammals safely at does that are expected to achieve therapeutic effects. In particular, compound X was given to mice IP at 20 mg/kg 40 mg/kg and 60 mg/kg daily for 10 days in a MTD study conducted at Leitat.

The nature of data set [4]: Pharmacokinetics (PK studies). The format is in vivo, mice. The note with it: at the MTD study doses, in words. On the procedure: as §3

What is called EC50 is the midpoint of the concentration-response curve. The IC50 is the midpoint of a concentration-inhibition curve.

As for `Nc1ccn([C@@H]2CS[C@H](CO)O2)c(=O)n1` (relative stereo) [Compound 3TC, (2R, cis)-4-amino-1-(2-hydroxymethyl-1,3-oxathiolan-5-yl)-(1H)-pyrimidin-2-one, reference compound], in data set [1], the “Selectivity Index SI50” value is more than 100 and the EC50 is 0.01 µM. In data set [2], this molecule showed an IC50 of 60.4 µM.

For `NC1CC1c1ccc(-c2cccc(O)c2)cc1` (stereo not drawn) [Compound X], the “tolerability in MTD study” value in data set [3] is given as “tolerated with acceptable toxicity”. In data set [4], the Cmax result is listed as “expected to result in therapeutic levels”. Also, in data set [1], the “Selectivity Index SI50” value is given as 26.8 and the EC50 worked out at 2.24 µM. In addition, in data set [1] (in words), the “activity in an HBV DNA replication assay” value is “low micromolar range”. In addition, the concentration for half-maximal inhibition (IC50) in data set [2] is 54.8 µM.
